Test results: US7354904B2, “Bacteriocin inducer peptides” (priority 2005, dated 2008)

Experiments:
[1] = tested on: Lactobacillus salivarius PVD-32; assay: Influence of signal peptide on bacteriocin OR-7 production, flask culture (fraction protein at 215 nm, activity by Spot Test against C. jejuni and S. enteritidis); format: cell-based
[2] = Isoelectric point by isoelectrofocusing; format: physicochemical
Text: FIGS. 1A and 1B are photographs showing the direct detection of signal peptide and bacteriocin OR-7 after SDS-PAGE (A) and isoelectrofocusing (B). […] In FIG. 1A Lane 1-Molecular Mass Markers LMW Range 2,100-12,500 (Amersham Pharmacia Biotech): 2,100; 5,780; 8,400; 12,500 Da. […] Lane 3 contained pI standards (Protein Test Mixture, I Marker Proteins, Serva): 10.0, 9.2, 8.1, 6.9, 5.5, 4.3.
FIGS. 2A and 2B are photographs showing direct detection of signal peptide and bacteriocin 50-52 after SDS-PAGE (A) and isoelectrofocusing (B). […] Lane 3 contained pI standards (Protein Test Mixture, I Marker Proteins, Serva): 10.0, 8.1, 7.9, 6.4, 5.5, 4.3, 4.1, and 3.8.
FIGS. 3A and 3B are photographs showing the direct detection of signal peptide and bacteriocin 760 after SDS-PAGE(A) and isoelectrofocusing (B). […] Lane 3 contained pI standards (Protein Test Mixture, I Marker Proteins, Serva): 10.0, 8.1, 7.9, 6.4, 5.5, 4.3, 4.1, and 3.8.
At the end of 14 hours the supernatant from the cultures was placed into 500 ml centrifuge flasks with about one milliliter of regenerated Sepharose SP Fast Flow (v/v 500: 1). This was incubated for approximately 1 hour at room temperature with stirring. The suspension was then washed with about 100 ml of a 0.2 M TRIS-HCl buffer pH approximately 6.4. The bacteriocins were eluted by centrifugation with about 100 ml of approximately 0.2 M K2HPO4, pH of about 5.8 at about 7,000×g for approximately 10 minutes. Antagonistic activity of the bacteriocin fractions against C. jejuni and S. enteritidis was assessed using a Spot Test as described above. The level of purity of the bacteriocin fractions was determined by SDS-PAGE. The isoelectric points of the fractions were determined by isoelectric focusing. Concentrations of protein for all bacteriocin fractions were determined at 215 nm using a spectrophotometer.

S. enteritidis = assay: Spot Test, antagonistic activity of isolated signal peptides; format: cell-based; details: isolated signal peptide
Description: (§1) The antagonistic activity of the bacteriocins produced when using the signal peptide and an inducer strain of bacteria against C. jejuni and S. enteritidis was assessed using a Spot Test. The steps included taking various concentrations of pure preparation (μg/ml) of the bacteriocin in approximately 10 microliters of volume plated onto blood-supplemented Campylobacter agar or Nutrient agar (MPA or Meta Peptone Agar) previously seeded with cells of target bacteria. Plates containing cultures of C. jejuni were grown at about 42° C., under microaerobic conditions. Plates containing S. enteritidis were grown at about 37° C. under aerobic conditions. Activity of the bacteriocin was expressed in arbitrary units (AU) per one milliliter of the preparation at which a visible zone of inhibition of the growth of culture appears (Henderson et al., Archives of Biochemistry and Biophysics, Volume 295, 5-12, 1992; herein incorporated by reference). Specific activity can also expressed as arbitrary units per milligram of pure bacteriocin.
(§2) Its activity was about 200 AU/ml and its molecular weight was about 2.5 kDa, as determined by SDS-PAGE electrophoresis. The isoelectric point (pI) was about 7.9 (FIGS. 1A and 1B).
(§3) Its molecular weight was about 3.1 kDa as measured by SDS-PAGE and the isoelectric point (pI) was about 8.1 (FIGS. 2A and 2B).
(§4) Its molecular weight was about 2.1 kDa as determined by SDS-PAGE electrophoresis and its isoelectric point was about 8.9 (FIGS. 3A and 3B).

C. jejuni = assay: as above; format: cell-based, Campylobacter jejuni; details: isolated signal peptide
Description: as §1, §2, §3, §4

[3] = tested on: Streptococcus cricetus LWP 760; assay: Influence of signal peptide on bacteriocin 760 production, flask culture (fraction protein at 215 nm, activity by Spot Test against C. jejuni and S. enteritidis); format: cell-based
[4] = 10% B-B, producer PVD-32 + inducer LWP-252, LWP 50-52 peptide 0.1 mg
[5] = LWP 760 + LWP 320, 0.1 mg LWP 50-52 peptide

## TNVTKSWWVLAGCNQVVASNCNCGNVKGLT (listed as Enterococcus faecium) [LWP 50-52 Signal Peptide, signal peptide isolated from Enterococcus faecium LWP 50-52, stimulates bacteriocin 50-52 production]
[1]; [4]
  Activity: 51,200 AU/ml
  Protein Concentration: 0.17 Mg/ml
  Protein increase vs. Control: 0.85
  Specific Activity: 301,176 AU/mg
  mg protein/liter: 56.1 mg protein/liter
[1]; signal peptide of another strain added to PVD-32 + LWP-252
  yield of bacteriocin OR-7 versus the control: does not increase
[2]
  isoelectric point (pI): about 8.1
S. enteritidis
  antagonistic activity: did not possess antagonistic activity
C. jejuni
  antagonistic activity: did not possess antagonistic activity
[3]; [5]
  Activity: 1,638,840 AU/ml
  Increase in amount of protein vs. control: 1
  Protein Concentration: 0.30 mg/mL
  Protein Produced from 1 liter Culture Fluid: 99 mg
  Specific Activity: 5,462,666 Au/mg
[3]; signal peptide of another strain added to LWP 760 + LWP 320
  yield of bacteriocin 760 versus control: did not increase
